Assay results: patent publication US20240246932A1 (Merck Sharp & Dohme LLC, priority 2021, published 2024)

Target: human NaV 1.8 channels stably expressed in HEK 293 cells (Homo sapiens (Human), UniProt Q9Y5Y9)
Experiment: Nav1.8 Qube automated patch-clamp assay
Assay type: cell-based
Conditions: human NaV1.8 in HEK 293 cells, whole-cell voltage clamp, room temperature; read-out: IC50 values (nM) for Examples in the Nav1.8 Qube Assay
Outline: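 Whole-cell voltage clamp at room temperature on HEK293 cells; from −90 mV, a 10 s 1 Hz train of 20 ms pulses to 10 mV (repolarising to −67 mV) was applied. Peak currents at pulses 1 and 10 gave resting- and inactivated-state inhibition; IC50 fitted by Hill equation. Internal CsF/CsCl buffer.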

Sequence of human NaV 1.8 channels stably expressed in HEK 293 cells (Q9Y5Y9 whole entry): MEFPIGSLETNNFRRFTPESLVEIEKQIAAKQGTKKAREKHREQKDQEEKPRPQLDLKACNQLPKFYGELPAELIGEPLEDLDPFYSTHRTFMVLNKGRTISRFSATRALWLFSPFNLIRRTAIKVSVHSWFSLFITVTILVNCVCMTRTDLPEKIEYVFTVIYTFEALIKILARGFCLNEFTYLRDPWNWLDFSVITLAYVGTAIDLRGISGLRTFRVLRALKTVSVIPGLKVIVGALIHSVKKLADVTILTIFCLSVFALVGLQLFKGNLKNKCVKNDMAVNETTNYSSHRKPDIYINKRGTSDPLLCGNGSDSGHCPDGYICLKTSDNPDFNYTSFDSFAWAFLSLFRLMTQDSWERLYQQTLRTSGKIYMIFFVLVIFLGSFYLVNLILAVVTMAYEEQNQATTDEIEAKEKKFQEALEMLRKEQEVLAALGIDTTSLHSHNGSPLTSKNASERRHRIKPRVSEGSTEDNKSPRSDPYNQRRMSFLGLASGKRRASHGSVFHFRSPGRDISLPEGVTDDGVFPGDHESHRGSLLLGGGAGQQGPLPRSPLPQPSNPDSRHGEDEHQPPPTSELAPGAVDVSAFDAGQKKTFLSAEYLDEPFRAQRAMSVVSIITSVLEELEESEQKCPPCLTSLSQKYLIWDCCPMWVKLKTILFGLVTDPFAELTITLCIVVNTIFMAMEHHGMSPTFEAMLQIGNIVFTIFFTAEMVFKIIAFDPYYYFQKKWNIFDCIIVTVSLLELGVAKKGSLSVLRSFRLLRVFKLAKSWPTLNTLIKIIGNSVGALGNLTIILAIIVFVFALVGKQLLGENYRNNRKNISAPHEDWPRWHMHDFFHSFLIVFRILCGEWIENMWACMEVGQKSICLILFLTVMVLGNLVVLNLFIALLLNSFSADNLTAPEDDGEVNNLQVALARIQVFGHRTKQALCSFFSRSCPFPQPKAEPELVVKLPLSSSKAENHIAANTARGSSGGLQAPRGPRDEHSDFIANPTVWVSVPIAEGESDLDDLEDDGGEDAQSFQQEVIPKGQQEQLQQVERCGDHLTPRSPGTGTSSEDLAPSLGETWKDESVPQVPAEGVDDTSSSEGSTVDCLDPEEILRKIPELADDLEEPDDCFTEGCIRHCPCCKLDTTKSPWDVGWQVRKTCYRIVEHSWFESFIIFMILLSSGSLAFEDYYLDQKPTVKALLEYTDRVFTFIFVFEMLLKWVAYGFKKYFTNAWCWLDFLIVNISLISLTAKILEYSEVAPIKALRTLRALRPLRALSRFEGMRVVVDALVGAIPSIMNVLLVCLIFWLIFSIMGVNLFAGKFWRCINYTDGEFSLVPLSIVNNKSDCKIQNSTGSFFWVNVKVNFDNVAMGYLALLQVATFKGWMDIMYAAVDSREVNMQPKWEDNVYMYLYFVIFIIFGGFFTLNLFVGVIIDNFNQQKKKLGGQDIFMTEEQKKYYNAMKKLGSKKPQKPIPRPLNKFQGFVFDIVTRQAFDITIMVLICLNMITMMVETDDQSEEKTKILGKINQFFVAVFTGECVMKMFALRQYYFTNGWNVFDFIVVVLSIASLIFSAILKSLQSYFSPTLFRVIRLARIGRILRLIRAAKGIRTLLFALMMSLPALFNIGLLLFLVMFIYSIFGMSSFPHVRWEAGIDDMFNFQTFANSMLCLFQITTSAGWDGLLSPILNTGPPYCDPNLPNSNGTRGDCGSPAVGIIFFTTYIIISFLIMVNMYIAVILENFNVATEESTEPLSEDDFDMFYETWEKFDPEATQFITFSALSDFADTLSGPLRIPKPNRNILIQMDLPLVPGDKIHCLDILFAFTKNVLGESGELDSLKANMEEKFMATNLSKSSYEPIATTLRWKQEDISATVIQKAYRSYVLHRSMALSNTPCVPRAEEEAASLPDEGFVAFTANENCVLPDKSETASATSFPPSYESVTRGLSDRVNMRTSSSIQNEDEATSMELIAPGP

`C[C@@H]1C(=O)NCCN1C(=O)NC(c1ccc(C#N)cc1)c1ccc(Cl)c(C(F)(F)F)n1` (single isomer, unassigned) [Example 76A] showed an IC50 of 5.18 nM.
For `C[C@@H]1C(=O)NCCN1C(=O)NC(c1cnc(OCC(F)(F)F)c(F)c1)c1ccc(F)c(Cl)c1F` (single isomer, unassigned) [Example 10B, (2R)-N-((S or R)-(3-chloro-2,4-difluorophenyl)(5-fluoro-6-(2,2,2-trifluoroethoxy)pyridin-3-yl)methyl)-2-methyl-3-oxopiperazine-1-carboxamide], the IC50 was 28 nM.
For `C[C@@H]1C(=O)NCCN1C(=O)NC(c1ccc(C(F)(F)F)nc1)c1ccc(F)c(Cl)c1` (single isomer, unassigned) [Example 16B, (2R)-N-((S or R)-(3-chloro-4-fluorophenyl)(6-(trifluoromethyl)pyridin-3-yl)methyl)-2-methyl-3-oxopiperazine-1-carboxamide], the IC50 was 31.7 nM.
Molecule `C[C@@H]1C(=O)NCCN1C(=O)NC(c1ccc(F)c(Cl)c1)c1cccc(C(F)(F)F)n1` (single isomer, unassigned) [Example 44] has an IC50 of 8.55 nM.
Work on `C[C@@H]1C(=O)NCCN1C(=O)NC(c1ccc(F)c(Cl)c1)c1cccc(OC(F)F)n1` (single isomer, unassigned) [Example 72B] yielded an IC50 of 25.3 nM.
`C[C@@H]1C(=O)NCCN1C(=O)NC(c1cnc(C(F)(F)F)c(Cl)c1)c1ccc(Cl)c(C(F)(F)F)n1` (single isomer, unassigned) [Example 83B] showed an IC50 of 3.14 nM.
For `C[C@@H]1C(=O)NCCN1C(=O)NC(c1cnc(C(F)(F)F)c(Cl)c1)c1csc(C(F)(F)F)n1` (single isomer, unassigned) [Example 84B, (2R)-N-((S or R)-(5-chloro-6-(trifluoromethyl)pyridin-3-yl)(2-(trifluoromethyl)thiazol-4-yl)methyl)-2-methyl-3-oxopiperazine-1-carboxamide], the IC50 was 202 nM.
For `C[C@@H]1C(=O)NCCN1C(=O)NC(c1ccc(C2CC2)nc1)c1ccc(F)c(Cl)c1F` (single isomer, unassigned) [Example 33A, (2R)-N-((R or S)-(3-chloro-2,4-difluoro-phenyl)(6-cyclo-propylpyridin-3-yl)methyl)-2-methyl-3-oxopiperazine-1-carboxamide], the IC50 was 14.4 nM.
`C[C@@H]1C(=O)NCCN1C(=O)NC(c1cnc(OC(F)F)s1)c1ccc(F)c(Cl)c1F` (single isomer, unassigned) [Example 14B, (2R)-N-((S or R)-(3-chloro-2,4-difluorophenyl)(2-(difluoromethoxy)thiazol-5-yl)methyl)-2-methyl-3-oxopiperazine-1-carboxamide] gave an IC50 of 101 nM.
For `O=C1CN(C(=O)NC(c2ccc(F)c(Cl)c2)c2cccc(C(F)(F)F)n2)[C@@H](CF)CN1` (single isomer, unassigned) [Example 47A, (2R)-N-((R or S)-(3-chloro-4-fluoro-phenyl)(6-(trifluoro-methyl)pyridin-2-yl)methyl)-2-(fluoromethyl)-5-oxopiperazine-1-carboxamide], the IC50 was 2310 nM.
`C[C@@H]1C(=O)NCCN1C(=O)NC(c1cnc(C(F)(F)F)c(Cl)c1)c1ccc(F)c(Cl)c1F` (single isomer, unassigned) [Example 35, (2R)-N-((R or S)-(3-chloro-2,4-difluorophenyl)(5-chloro-6-(trifluoromethyl)pyridin-3-yl)methyl)-2-methyl-3-oxopiperazine-1-carboxamide] gave an IC50 of 1.13 nM.
`O=C1CN(C(=O)NC(c2ccc(Cl)c(F)c2)c2ccc(F)c(C(F)(F)F)n2)CCN1` (single isomer, unassigned) [Example 54B, N-((S or R)-(4-chloro-3-fluorophenyl)(5-fluoro-6-(trifluoromethyl)pyridin-2-yl)methyl)-3-oxopiperazine-1-carboxamide] was tested, and the IC50 was 4.14 nM.
Work on `C[C@@H]1C(=O)NCCN1C(=O)NC(c1ccc(OC(F)(F)F)cc1)c1cnc(C(F)(F)F)c(Cl)c1` (single isomer, unassigned) [Example 20B, (2R)-N-((S or R)-(5-chloro-6-(trifluoro-methyl)pyridin-3-yl)(4-(trifluoromethoxy)phenyl)methyl)-2-methyl-3-oxopiperazine-1-carboxamide] yielded an IC50 of 4 nM.
In the case of `C[C@@H]1C(=O)NCCN1C(=O)NC(c1cnc(C(F)(F)F)c(Cl)c1)c1ccc(Cl)c(C(F)(F)F)n1` (single isomer, unassigned) [Example 83A], the IC50 is reported as 6.51 nM.
Molecule `C[C@@H]1C(=O)NCCN1C(=O)NC(c1ccc(F)c(Cl)c1)c1ccc(F)c(OCC(F)(F)F)n1` (single isomer, unassigned) [Example 70B] has an IC50 of 6.87 nM.
`C[C@@H]1C(=O)NCCN1C(=O)NC(c1ccc(OC(F)(F)F)nc1)c1ccc(F)c(Cl)c1F` (single isomer, unassigned) [Example 4B, (2R)-N-((S or R)-(3-chloro-2,4-difluorophenyl)(6-(trifluoromethoxy)pyridin-3-yl)methyl)-2-methyl-3-oxopiperazine-1-carboxamide] showed an IC50 of 25.7 nM.
For `C[C@@H]1C(=O)NCCN1C(=O)NC(c1ccc(F)c(F)c1)c1ccc(F)c(C(F)(F)F)n1` (single isomer, unassigned) [Example 49A, (2R)-N-((R or S)-(3,4-difluorophenyl)(5-fluoro-6-(trifluoro-methyl)pyridin-2-yl)methyl)-2-methyl-3-oxopiperazine-1-carboxamide], the IC50 was 258 nM.
`C[C@@H]1C(=O)NCCN1C(=O)NC(c1ccc(OC(F)(F)F)c(Cl)c1)c1cnn(C(F)(F)F)c1` (single isomer, unassigned) [Example 63B, (2R)-N-((S or R)-(3-chloro-4-(trifluoro-methoxy)phenyl)(1-(trifluoromethyl)-1H-pyrazol-4-yl)methyl)-2-methyl-3-oxopiperazine-1-carboxamide] showed an IC50 of 13.5 nM.
`CCC1C(=O)NCCN1C(=O)NC(c1ccc(C(F)(F)F)nc1)c1ccc(F)c(Cl)c1F` (single isomer, unassigned) [Example 40A, N-((R or S)-(3-chloro-2,4-difluorophenyl)(6-(trifluoromethyl)pyridin-3-yl)methyl)-(R or S)-2-ethyl-3-oxopiperazine-1-carboxamide] gave an IC50 of 729 nM.
`O=C1CN(C(=O)NC(c2ccc(F)c(Cl)c2)c2cccc(C(F)(F)F)n2)[C@H](CF)CN1` (single isomer, unassigned) [Example 47B, (2S)-N-((R or S)-(3-chloro-4-fluoro-phenyl)(6-(trifluoro-methyl)pyridin-2-yl)methyl)-2-(fluoromethyl)-5-oxopiperazine-1-carboxamide] gave an IC50 of 3760 nM.
For `O=C1CN(C(=O)NC(c2ccc(OCC(F)(F)F)nc2)c2ccc(F)c(Cl)c2)CCN1` (single isomer, unassigned) [Example 2A, N-((R or S)-(3-chloro-4-fluorophenyl)(6-(2,2,2-trifluoro-ethoxy)pyridin-3-yl)methyl)-3-oxopiperazine-1-carboxamide], the IC50 was 8.98 nM.
Molecule `C[C@@H]1C(=O)NCCN1C(=O)NC(c1ccc(OCC(F)(F)F)nc1)c1ccc(F)c(Cl)c1F` (single isomer, unassigned) [Example 1A] has an IC50 of 1.09 nM.
In the case of `C[C@@H]1C(=O)NCCN1C(=O)NC(c1ccc(C2CC2)nc1)c1ccc(F)c(Cl)c1F` (single isomer, unassigned) [Example 33B, (2R)-N-((S or R)-(3-chloro-2,4-difluoro-phenyl)(6-cyclo-propylpyridin-3-yl)methyl)-2-methyl-3-oxopiperazine-1-carboxamide], the IC50 is reported as 514 nM.
In the case of `C[C@@H]1C(=O)NCCN1C(=O)NC(c1ccc(C(F)(F)F)nc1)c1ccc(F)c(OC(F)(F)F)c1` (single isomer, unassigned) [Example 19B, (2R)-N-((S or R)-(4-fluoro-3-(trifluoro-methoxy)phenyl)(6-(trifluoromethyl)pyridin-3-yl)methyl)-2-methyl-3-oxopiperazine-1-carboxamide], the IC50 is reported as 72.6 nM.
Molecule `C[C@@H]1C(=O)NCCN1C(=O)NC(c1ccc(OCC(F)(F)F)nc1)c1cc(F)c(F)c(Cl)c1` (single isomer, unassigned) [Example 7A, (2R)-N-((R or S)-(3-chloro-4,5-difluorophenyl)(6-(2,2,2-trifluoro-ethoxy)pyridin-3-yl)methyl)-2-methyl-3-oxopiperazine-1-carboxamide] has an IC50 of 10.8 nM.
`CCC1C(=O)NCCN1C(=O)NC(c1ccc(C(F)(F)F)nc1)c1ccc(F)c(Cl)c1F` (single isomer, unassigned) [Example 40B, N-((R or S)-(3-chloro-2,4-difluorophenyl)(6-(trifluoromethyl)pyridin-3-yl)methyl)-(S or R)-2-ethyl-3-oxopiperazine-1-carboxamide] showed an IC50 of 10.5 nM.
For `C[C@@H]1C(=O)NCCN1C(=O)NC(c1ccc(OC2CC2)c(F)c1)c1cnc(C(F)(F)F)c(Cl)c1` (single isomer, unassigned) [Example 25B, (2R)-N-((S or R)-(5-chloro-6-(trifluoro-methyl)pyridin-3-yl)(4-cyclopropoxy-3-fluorophenyl)methyl)-2-methyl-3-oxopiperazine-1-carboxamide], the IC50 was 15.8 nM.
Molecule `C[C@@H]1C(=O)NCCN1C(=O)NC(c1ccc(OCC(F)(F)F)nc1)c1ccc(F)c(F)c1` (single isomer, unassigned) [Example 6B, (2R)-N-((S or R)-(3,4-difluorophenyl)(6-(2,2,2-trifluoro-ethoxy)pyridin-3-yl)methyl)-2-methyl-3-oxopiperazine-1-carboxamide] has an IC50 of 128 nM.
Molecule `O=C1CN(C(=O)NC(c2ccc(OCC(F)(F)F)nc2)c2ccc(F)c(Cl)c2)CCN1` (single isomer, unassigned) [Example 2B, N-((S or R)-(3-chloro-4-fluorophenyl)(6-(2,2,2-trifluoroethoxy)pyridin-3-yl)methyl)-3-oxopiperazine-1-carboxamide] has an IC50 of 123 nM.
In the case of `C[C@@H]1C(=O)NCCN1C(=O)NC(c1ccc(OC(F)(F)F)c(Cl)c1)c1coc(C(F)(F)F)n1` (single isomer, unassigned) [Example 64A, (2R)-N-((R or S)-(3-chloro-4-(trifluoro-methoxy)phenyl)(2-(trifluoromethyl)oxazol-4-yl)methyl)-2-methyl-3-oxopiperazine-1-carboxamide], the IC50 is reported as 4.96 nM.
